Measurements reported in US20090048196A1, “Membrane receptor for retinol binding protein mediates cellular uptake of vitamin A, methods of use and compositions” (THE REGENTS OF THE UNIVERSITY OF CALIFORNIA, priority 2007, published 2009).

Experiments:
Type in all cases: cell-based
[1] = test system: human STRA6; experiment: STRA6 expression in WiDr cells (semi-quantitative PCR); conditions: 100 nM RNAi oligo, 65 hrs
Procedure: RNAi transfection and retinoic acid treatment of human WiDr colon adenocarcinoma cells: WiDr cells (American Type Culture Collection) were grown in Earle's balanced salt media with 10% FBS at 37° C. in a 95% air/5% CO2 humidified incubator. Human STRA6 RNAi oligo sequences were 5′-[…]-3′ (S-1) (SEQ ID NO:3), 5′-[…]-3′ (S-2) (SEQ ID NO:4); and 5′-[…]-3′ (S-3) (SEQ ID NO:5). Stealth™ negative control RNAi with medium GC (Invitrogen) was used for a negative control. WiDr cells were transfected with 100 nM RNAi oligos using DharmaFect1 (Dharmacon) according to the manufacture's protocol. WiDr Cells were split one day before RNAi transfection and cells were incubated with RNAi oligos for 65 hrs after transfection. Retinoic acid treatment was applied for 55 hours. RNA was isolated from WiDr cells using the RNeasy kit (Qiagen). Reverse transcription was performed with Invitrogen's SuperScriptIII First-Strand Synthesis System. Semi-Quantitative PCR was carried out for 24 cycles at 95° C. for 30 sec (denaturation), 63° C. for 30 sec (annealing), and 72° C. for 30 min (extension). cDNA synthesized from 40 ng of total RNA was used for each reaction. Primers used for PCR to detect human STRA6 were 5′-[…]-3′ (human STRA6 forward primer (SEQ ID NO:6)), 5′-[…]-3′ (human STRA6 reverse primer (SEQ ID NO:7)).

[2] = test system: WiDr human colon adenocarcinoma cells; experiment: Vitamin A uptake activity of WiDr cells from 3H-retinol/RBP; conditions: 100 nM RNAi oligo, 65 hrs
Procedure: (§1) Production of ^3H-retinol loaded RBP and retinol uptake assay based on ^3H-retinol/RBP: Apo-RBP was prepared from holo-RBP as described (3). Radioactive retinol (15-^3H(N)-retinol) was purchased from American Radiolabeled Chemicals Inc. Ten micrograms apo-His-RBP was incubated with 150 pmol retinol (3 μCi) at 24° C. overnight. Radiolabeled holo-His-RBP was bound to Ni-NTA resin and the resin was washed extensively with 10 mM imidazole in PBS. Radiolabeled His-RBP was eluted with 100 mM imidazole in PBS. For the vitamin A uptake assay, transfected or untransfected cells grown on 12-well or 24-well cell culture plates were washed once with PBS and incubated with the ^3H-retinol/RBP diluted in SFM for various lengths of time. The reactions were stopped by washing the cells with PBS and solubilizing cells in 1% Triton X-100 in PBS. Radioactivity was measured with a scintillation counter.
Effects of metabolic inhibitors on vitamin A uptake and endocytosis: To test the effect of metabolic inhibitors, cells were pretreated with metabolic inhibitors in serum free medium (50 mM 2-deoxyglucose and 5 mM sodium azide) at 37° C. for 30 min before incubation with ^3H-retinol/RBP for 45 min at 37° C. in the continued presence of the metabolic inhibitors. The slight increase in activity for MI-treated cells as shown in FIGS. 4C and 4D is reproducible. Endocytosis assay based on horseradish peroxidase (HRP) was performed similarly as described. Cells (80-100% confluence) were washed once with PBS and then incubated in SFM with or without metabolic inhibitors for 30 min at 37° C. […]
RNAi transfection and retinoic acid treatment of human WiDr colon adenocarcinoma cells: WiDr cells (American Type Culture Collection) were grown in Earle's balanced salt media with 10% FBS at 37° C. in a 95% air/5% CO2 humidified incubator. […] Semi-Quantitative PCR was carried out for 24 cycles at 95° C. for 30 sec (denaturation), 63° C. for 30 sec (annealing), and 72° C. for 30 min (extension). cDNA synthesized from 40 ng of total RNA was used for each reaction. […]

[3] = test system: bovine STRA6; experiment: STRA6 expression in primary bovine RPE culture (semi-quantitative PCR); conditions: 100 nM RNAi oligo, transfected twice, 72 h each
Procedure: Primary culture and RNAi transfection of bovine RPE cells: Primary cultures of RPE cells were derived from adult bovine eyes obtained from a local slaughterhouse. After the removal of vitreous and retina, the posterior half of the eye was incubated in 2% Dispase solution (Boehringer Mannheim) for 2 h. Sheets of RPE cells were then collected and washed with Hanks' Balanced salt solution (Irvine Scientific). The RPE cells were exposed to 0.05% Trypsin and 0.02% EDTA solution for 5 minutes at room temperature. The RPE cells were suspended in CEM replacement medium containing 10% calf serum and 1% penicillin-streptomycin as described previously (12), and the cells were then seeded at a density of 3×10^5 cells/cm^2 onto 12 mm millicell-PCF culture wells with a pore size of 0.45 um (Millipore Corp.). The RPE cells were maintained at 37° C. in a 5% CO2 incubator for 10 days before RNAi transfection. For RNAi transfection, bovine RPE cells were washed once with PBS and incubated in fresh DMEM/10% FBS media. Cells were transfected with 100 nM RNAi oligos (Stealth RNAi, Invitrogen) using DharmaFect1 according to manufacturer's protocol and incubated at 37° C. for 72 h. Cells were then transfected under the same conditions and incubated for another 72 h. RNAi oligo sequences used for this assay were 5′-[…]-3′ (S-4) (SEQ ID NO:8), 5′-[…]-3′ (S-5) (SEQ ID NO:9) and 5′-[…]-3′ (S-6) (SEQ ID NO:10). Semi-quantitative PCR was carried out for 26 cycles at 95° C. for 30 sec (denaturation), 60° C. for 30 sec (annealing), and 72° C. for 30 min (extension). cDNA synthesized from 32 ng of total RNA was used for each reaction. Primers used for PCR reaction to detect bovine STRA6 are 5′-[…]-3′ (forward primer (SEQ ID NO:11)), 5′-[…]-3′ (reverse primer (SEQ ID NO:12)).

[4] = test system: primary bovine RPE culture; experiment: Vitamin A uptake activity of primary bovine RPE culture from holo-RBP; conditions: 100 nM RNAi oligo, transfected twice, 72 h each
Procedure: as §1
Primary culture and RNAi transfection of bovine RPE cells: Primary cultures of RPE cells were derived from adult bovine eyes obtained from a local slaughterhouse. After the removal of vitreous and retina, the posterior half of the eye was incubated in 2% Dispase solution (Boehringer Mannheim) for 2 h. Sheets of RPE cells were then collected and washed with Hanks' Balanced salt solution (Irvine Scientific). The RPE cells were exposed to 0.05% Trypsin and 0.02% EDTA solution for 5 minutes at room temperature. The RPE cells were suspended in CEM replacement medium containing 10% calf serum and 1% penicillin-streptomycin as described previously (12), and the cells were then seeded at a density of 3×10^5 cells/cm^2 onto 12 mm millicell-PCF culture wells with a pore size of 0.45 um (Millipore Corp.). The RPE cells were maintained at 37° C. in a 5% CO2 incubator for 10 days before RNAi transfection. […] Semi-quantitative PCR was carried out for 26 cycles at 95° C. for 30 sec (denaturation), 60° C. for 30 sec (annealing), and 72° C. for 30 min (extension). cDNA synthesized from 32 ng of total RNA was used for each reaction. […]

Row | Substance | STRA6 expression [1] | Vitamin A uptake activity [2] | STRA6 expression [3] | Vitamin A uptake activity [4]
1 | S-1: Human STRA6 RNAi oligo 5′-UGAAGCUCAUCCAACAGAAUAUGGC-3′ (SEQ ID NO:3) (listed as RNA, chemistry not given here) | suppresses | suppresses | – | –
2 | S-2: Human STRA6 RNAi oligo 5′-UAGAUGCAGUGUCUCAAGCAGACGC-3′ (SEQ ID NO:4) (listed as RNA, chemistry not given here) | suppresses | suppresses | – | –
3 | S-3: Human STRA6 RNAi oligo 5′-UGAGUAAGCAGGACAAGACCAAGGC-3′ (SEQ ID NO:5) (listed as RNA, chemistry not given here) | suppresses | suppresses | – | –
4 | S-4: Bovine STRA6 RNAi oligo 5′-CCGUCUACAUUCCACAACAAGGAUU-3′ (SEQ ID NO:8) (listed as RNA, chemistry not given here) | – | – | suppresses | suppresses
5 | S-5: Bovine STRA6 RNAi oligo 5′-GGCUACCACACAUACUGCAACUUCU-3′ (SEQ ID NO:9) (listed as RNA, chemistry not given here) | – | – | suppresses | suppresses
6 | S-6: Bovine STRA6 RNAi oligo 5′-GAGGAUUCCUAUGACAGCUGGUACA-3′ (SEQ ID NO:10) (listed as RNA, chemistry not given here) | – | – | suppresses | suppresses
